Experiments:
PC3 (prostate) = assay: In vitro cytotoxic activity (MTT) assay, PC3; assay type: cell-based; conditions: Homo sapiens, Prostate cell; PC3 (prostate) cells, exposed for 96 hours; read-out: IC50, concentration eliciting 50% inhibition of cell proliferation
Experimental: (§1) Compounds 1-15 were screened for their in vitro cytotoxic activity utilizing a 3-(4,5-dimethyl-thiazol-2-yl)-2,5-diphenyltetrazolium bromide (MTT) assay against selected cancer human cell lines consisting of PC3 (prostate), HCT116 (colon), A375 (melanoma), H1299 (lung), MIAPaCa-2 (pancreas), HL60 (leukemia), MCF7 (breast), MDA-MB-231 (breast) (T. Mosmann, J. Immunol. Meth., 1983, 65, 55-63). The cells were cultured at 37° C. in RMPI1640 medium supplemented with 10% fetal bovine serum, 50 IU/mL penicillin, and 50 μg/mL streptomycin in a 5% CO2 incubator. All cells were sub-cultured 3 times/week by trypsinisation. Viable cells were seeded and allowed to adhere for 12 h before a test drug was added in 96-well plates at an initial density of 1.0×10^5 cells/mL. Tumor cell lines were separately exposed to various concentrations of the tested compounds followed by incubation at a temperature of 37° C. during 96 hours inside a medium of fresh RMPI 1640. Cells were subsequently incubated at 37° C. using MTT at 0.5 mg/mL during 4 hours. After removal of supernatant, formazan crystals were dissolved in isopropanol and the optical density was measured at 570 nm. CX-4945 was used as a positive control.

MCF7 (breast) = assay: In vitro cytotoxic activity (MTT) assay, MCF7; assay type: cell-based; conditions: Homo sapiens; MCF7 (breast) cells, exposed for 96 hours; read-out: IC50, concentration eliciting 50% inhibition of cell proliferation
Experimental: as §1

HL60 (leukemia) = assay: In vitro cytotoxic activity (MTT) assay, HL60; assay type: cell-based; conditions: Homo sapiens, HL-60; HL60 (leukemia) cells, exposed for 96 hours; read-out: IC50, concentration eliciting 50% inhibition of cell proliferation
Experimental: as §1

H1299 (lung) = assay: In vitro cytotoxic activity (MTT) assay, H1299; assay type: cell-based; conditions: Homo sapiens, NCI-H1299; H1299 (lung) cells, exposed for 96 hours; read-out: IC50, concentration eliciting 50% inhibition of cell proliferation
Experimental: as §1

MDA-MB-231 (breast) = assay: In vitro cytotoxic activity (MTT) assay, MDA-MB-231; assay type: cell-based; conditions: Homo sapiens; MDA-MB-231 (breast) cells, exposed for 96 hours; read-out: IC50, concentration eliciting 50% inhibition of cell proliferation
Experimental: as §1

HCT116 (colon) = assay: In vitro cytotoxic activity (MTT) assay, HCT116; assay type: cell-based; conditions: Homo sapiens, HCT-116; HCT116 (colon) cells, exposed for 96 hours; read-out: IC50, concentration eliciting 50% inhibition of cell proliferation
Experimental: as §1

[1] = biological target: T1, recombinant human CK2 (RRββ-holoenzyme) (Homo sapiens, UniProt P68400); assay: CK2 Kinase Assay (33P-ATP, filter plate); assay type: biochemical; conditions: final ATP concentration 15 μM, 10 min at 30° C.; read-out: protein kinase CK2 IC50
T1 construct: purchased Millipore
T1 sequence (P68400 whole entry): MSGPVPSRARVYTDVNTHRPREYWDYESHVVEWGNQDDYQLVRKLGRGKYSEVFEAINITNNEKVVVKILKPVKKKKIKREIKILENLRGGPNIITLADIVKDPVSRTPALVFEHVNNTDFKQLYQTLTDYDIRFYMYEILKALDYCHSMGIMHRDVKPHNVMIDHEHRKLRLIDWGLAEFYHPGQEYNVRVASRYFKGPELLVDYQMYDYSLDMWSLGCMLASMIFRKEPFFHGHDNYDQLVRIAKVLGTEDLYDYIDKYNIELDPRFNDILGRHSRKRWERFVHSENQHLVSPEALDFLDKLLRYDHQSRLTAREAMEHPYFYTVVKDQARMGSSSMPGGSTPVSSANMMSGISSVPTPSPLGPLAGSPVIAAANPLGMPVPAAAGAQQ
T1 sequence (P67870 whole entry partner): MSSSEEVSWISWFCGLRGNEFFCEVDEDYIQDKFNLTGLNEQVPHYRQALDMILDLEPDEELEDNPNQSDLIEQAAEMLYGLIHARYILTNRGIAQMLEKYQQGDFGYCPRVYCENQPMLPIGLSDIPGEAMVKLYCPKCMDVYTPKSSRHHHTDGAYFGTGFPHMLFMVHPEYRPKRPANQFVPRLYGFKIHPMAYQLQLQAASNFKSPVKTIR
Experimental: CK2 Kinase Assay was conducted using the protocol as described in Pierre F. et al; J. Med. Chem. 2011, 54, 635-654. The tested compounds in aqueous solution were added at a volume of 10 μL to a reaction mixture comprising 10 μL of assay dilution buffer (ADB; 20 mM MOPS, pH 7.2, 25 mM β-glycerol phosphate, 5 mM EGTA, 1 mM sodium orthovanadate, and 1 mM dithiothreitol), 10 μL of substrate peptide (RRRDDDSDDD, dissolved in ADB at a concentration of 1 mM), 10 μL of recombinant human CK2 (RRββ-holoenzyme, 25 ng dissolved in ADB; Millipore). Reactions were initiated by the addition of 10 μL of ATP solution (90% 75 mMMgCl2, 75 μM ATP (final ATP concentration: 15 μM) dissolved in ADB; 10% [γ-33P] ATP (stock 1mCi/100 μL; 3000 Ci/mmol (Perkin-Elmer) and maintained for 10 min at 30° C. The reactions were quenched with 100 μL of 0.75% phosphoric acid and then transferred to and filtered through a phosphor cellulose filter plate (Millipore). After washing each well five times with 0.75% phosphoric acid, the plate was dried under vacuum for 5 min and, following the addition of 15 μL of scintillation fluid to each well, the residual radioactivity was measured using a Wallac luminescence counter. The IC50 values were derived from eight concentrations of test inhibitors.

A375 (melanoma) = assay: In vitro cytotoxic activity (MTT) assay, A375; assay type: cell-based; conditions: Homo sapiens, A-375; A375 (melanoma) cells, exposed for 96 hours; read-out: IC50, concentration eliciting 50% inhibition of cell proliferation
Experimental: as §1

MIAPaCa-2 (pancreas) = assay: In vitro cytotoxic activity (MTT) assay, MIAPaCa-2; assay type: cell-based; conditions: Homo sapiens, MIA PaCa-2; MIAPaCa-2 (pancreas) cells, exposed for 96 hours; read-out: IC50, concentration eliciting 50% inhibition of cell proliferation
Experimental: as §1

IC50 [1]: 0.029 µM
SMILES: Clc1cccc(Nc2nc3ccncc3c3[nH]c4ccncc4c23)c1 [Compound 1, N-(3-chlorophenyl)-11H-pyrido[3′,4′:4,5]pyrrolo[3,2-c][1,6]naphthyridin-6-amine]
IC50 (PC3 (prostate)): 1 µM
IC50 (MCF7 (breast)): 3.1 µM
IC50 (HL60 (leukemia)): 3.5 µM
IC50 (H1299 (lung)): 1.2 µM
IC50 (MDA-MB-231 (breast)): 2.6 µM
IC50 (HCT116 (colon)): 1.3 µM
IC50 (A375 (melanoma)): 4.4 µM
IC50 (MIAPaCa-2 (pancreas)): 1.1 µM
